# Laboratory results: ChEMBL document CHEMBL1201862, “PubChem BioAssay data set” (2004)
# The source made the active and inactive calls.
# What was measured:
# Protein skinhead-1 = target: T1, Protein skinhead-1 (Caenorhabditis elegans, UniProt P34707); format: functional
# T1 sequence (P34707 whole entry): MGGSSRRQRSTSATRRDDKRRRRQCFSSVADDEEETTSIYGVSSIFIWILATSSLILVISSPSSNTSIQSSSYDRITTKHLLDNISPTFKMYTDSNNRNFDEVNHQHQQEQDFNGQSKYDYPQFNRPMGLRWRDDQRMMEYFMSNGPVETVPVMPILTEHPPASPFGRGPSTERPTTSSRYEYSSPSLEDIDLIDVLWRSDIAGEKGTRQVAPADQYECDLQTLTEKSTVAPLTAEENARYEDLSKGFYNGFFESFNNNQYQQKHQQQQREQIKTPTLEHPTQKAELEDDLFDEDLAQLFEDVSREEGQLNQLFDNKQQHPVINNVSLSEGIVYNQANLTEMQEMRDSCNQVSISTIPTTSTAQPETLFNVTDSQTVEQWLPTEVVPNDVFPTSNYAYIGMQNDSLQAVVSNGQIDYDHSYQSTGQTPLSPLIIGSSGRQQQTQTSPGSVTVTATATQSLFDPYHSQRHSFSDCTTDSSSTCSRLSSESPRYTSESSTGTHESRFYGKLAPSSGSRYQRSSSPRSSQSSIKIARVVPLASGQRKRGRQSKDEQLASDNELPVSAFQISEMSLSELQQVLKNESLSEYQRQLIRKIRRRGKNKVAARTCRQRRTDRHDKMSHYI
# [1] = target: T2, Replicative DNA helicase DnaB (Mycobacterium tuberculosis, UniProt P9WMR3); assay: DnaB intein splicing inhibitors, dose response, biochemical, cell-free fluorescence (AID 449749); format: functional
# T2 sequence (P9WMR3 whole entry): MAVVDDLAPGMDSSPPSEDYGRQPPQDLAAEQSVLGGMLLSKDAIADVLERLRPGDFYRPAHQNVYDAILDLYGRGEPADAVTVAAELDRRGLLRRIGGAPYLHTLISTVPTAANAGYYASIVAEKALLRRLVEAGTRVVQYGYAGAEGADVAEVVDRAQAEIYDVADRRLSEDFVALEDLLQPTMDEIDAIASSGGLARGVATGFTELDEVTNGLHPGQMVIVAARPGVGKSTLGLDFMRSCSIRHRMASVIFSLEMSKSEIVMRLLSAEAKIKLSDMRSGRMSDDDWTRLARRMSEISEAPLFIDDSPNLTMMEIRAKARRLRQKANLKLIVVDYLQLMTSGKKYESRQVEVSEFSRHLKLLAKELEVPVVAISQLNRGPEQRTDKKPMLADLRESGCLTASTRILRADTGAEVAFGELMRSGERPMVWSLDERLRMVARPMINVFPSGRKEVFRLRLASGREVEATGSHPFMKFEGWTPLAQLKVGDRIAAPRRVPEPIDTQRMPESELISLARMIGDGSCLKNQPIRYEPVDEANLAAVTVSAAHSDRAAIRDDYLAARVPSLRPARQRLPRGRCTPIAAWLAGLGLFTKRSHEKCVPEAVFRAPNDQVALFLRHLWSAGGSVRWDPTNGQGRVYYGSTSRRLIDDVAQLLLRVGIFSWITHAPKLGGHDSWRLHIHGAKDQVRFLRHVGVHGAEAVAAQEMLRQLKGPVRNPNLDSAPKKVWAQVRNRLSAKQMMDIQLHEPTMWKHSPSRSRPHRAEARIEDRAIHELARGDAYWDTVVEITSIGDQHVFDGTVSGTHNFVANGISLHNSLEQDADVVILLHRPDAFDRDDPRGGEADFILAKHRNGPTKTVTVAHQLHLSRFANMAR
# Protein RecA = target: T3, Protein RecA (Mycobacterium tuberculosis, UniProt P9WHJ3); assay: Fluorescence Cell-Free Homogeneous Dose Retest to Identify Inhibitors of RecA-Intein Splicing Activity. [Related pubchem assays (depositor defined):AID2097, AID2223, AID489010, AID492950]; format: functional
# T3 sequence (P9WHJ3 whole entry): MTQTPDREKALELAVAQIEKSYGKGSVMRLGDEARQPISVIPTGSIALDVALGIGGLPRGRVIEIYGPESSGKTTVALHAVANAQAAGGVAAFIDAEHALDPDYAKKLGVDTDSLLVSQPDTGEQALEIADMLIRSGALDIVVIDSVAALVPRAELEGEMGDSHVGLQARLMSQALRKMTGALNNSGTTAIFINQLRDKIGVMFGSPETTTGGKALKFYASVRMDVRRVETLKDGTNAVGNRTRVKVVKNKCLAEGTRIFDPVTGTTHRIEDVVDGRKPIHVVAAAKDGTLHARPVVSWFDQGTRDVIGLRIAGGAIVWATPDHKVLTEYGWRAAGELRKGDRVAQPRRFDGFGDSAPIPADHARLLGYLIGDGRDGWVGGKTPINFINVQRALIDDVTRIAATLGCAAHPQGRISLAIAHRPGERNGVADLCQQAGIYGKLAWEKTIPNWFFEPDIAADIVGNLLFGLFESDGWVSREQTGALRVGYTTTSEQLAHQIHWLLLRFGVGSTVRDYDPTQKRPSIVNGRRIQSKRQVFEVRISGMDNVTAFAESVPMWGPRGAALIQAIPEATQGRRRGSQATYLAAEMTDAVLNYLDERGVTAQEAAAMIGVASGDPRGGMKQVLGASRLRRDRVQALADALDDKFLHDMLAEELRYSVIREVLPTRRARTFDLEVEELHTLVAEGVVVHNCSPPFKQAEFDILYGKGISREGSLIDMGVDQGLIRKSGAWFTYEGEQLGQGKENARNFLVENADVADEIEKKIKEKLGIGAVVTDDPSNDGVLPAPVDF
# [2] = Luminescence Cell-Based Dose Retest to Confirm Inhibitors of Cancer Stem Cells. [Related pubchem assays (depositor defined):AID2717, AID2721]; format: functional; details: Homo sapiens
# INS1 = assay: beta cell apoptosis inhibitors, cytokine rescue, dose response, luminescence, retest (AID 449756); format: functional, cell-based; details: Rattus norvegicus;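 note: cell death triggered by IL-1 beta plus TNF-alpha plus IFN-gamma mixture; protective hits raise ATP signal compared with cytokine alone wells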
# [3] = inhibitors of firefly luciferase expression or activity, dose response, H4 neuroglioma cells, luminescence (AID 1990); format: functional, cell-based
# [4] = Luminescence Cell-Based Dose Response HTS to Identify Inhibitors of 5'UTR Stem-Loop Driven Prion Protein mRNA Translation in H4 Neuroglioblastoma Cells. [Related pubchem assays: 1827 (Project Summary), 1813 (Primary HTS)]; format: functional
# [5] = inhibitors of SNCA 5'UTR-driven reporter translation, confirmation, H4 neuroglioma cells, luminescence (AID 1988); format: functional, cell-based
# [6] = target: T4, RNA-binding protein pos-1 (Caenorhabditis elegans, UniProt G5EF15); assay: inhibitors of POS-1/mex-3 RNA binding, dose response, biochemical, fluorescence polarization (AID 1964);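 note: purified POS-1 fused to maltose binding protein made in E. coli; potency of compounds blocking POS-1 binding to fluorescent RNA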
# T4 sequence (G5EF15 whole entry): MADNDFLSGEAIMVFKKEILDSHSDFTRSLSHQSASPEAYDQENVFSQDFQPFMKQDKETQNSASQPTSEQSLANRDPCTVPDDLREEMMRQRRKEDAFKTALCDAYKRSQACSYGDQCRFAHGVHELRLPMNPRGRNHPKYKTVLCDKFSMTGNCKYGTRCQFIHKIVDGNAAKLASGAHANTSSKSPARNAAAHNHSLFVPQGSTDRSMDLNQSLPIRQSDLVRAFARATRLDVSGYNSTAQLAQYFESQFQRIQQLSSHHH
# [7] = target: T5, Zinc finger protein mex-5 (Caenorhabditis elegans, UniProt Q9XUB2); assay: MEX-5/TCR-2 RNA interaction inhibitors, dose response, biochemical, C. elegans, fluorescence polarization (AID 1960)
# T5 sequence (Q9XUB2 whole entry): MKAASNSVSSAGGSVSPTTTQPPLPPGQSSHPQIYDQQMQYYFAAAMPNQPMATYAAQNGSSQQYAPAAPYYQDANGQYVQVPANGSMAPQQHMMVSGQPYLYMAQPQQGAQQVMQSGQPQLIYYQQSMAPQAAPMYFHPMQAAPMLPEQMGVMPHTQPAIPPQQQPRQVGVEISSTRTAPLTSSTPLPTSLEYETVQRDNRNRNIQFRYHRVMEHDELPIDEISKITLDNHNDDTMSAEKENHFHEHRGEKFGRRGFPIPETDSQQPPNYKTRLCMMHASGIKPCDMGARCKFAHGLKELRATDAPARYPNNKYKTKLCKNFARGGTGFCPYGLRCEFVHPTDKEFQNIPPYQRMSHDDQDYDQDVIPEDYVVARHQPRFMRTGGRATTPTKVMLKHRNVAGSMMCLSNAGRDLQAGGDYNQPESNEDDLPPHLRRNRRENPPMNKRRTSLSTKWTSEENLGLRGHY
# [8] = Luminescence Cell-Based Dose Confirmation HTS to Identify Activators of 5'UTR Stem-Loop Driven Alpha-Synuclein mRNA Translation in H4 Neuroglioblastoma Cells. [Related pubchem assays: 1829 (Project Summary), 1814 (Primary HTS)]; format: functional
# [9] = Luminescence Cell-Based Dose Response HTS to Identify Activators of Luciferase Translation or Activity in H4 […] Cells. [Related pubchem assays: 1829 (Project Summary), 1814 (Primary HTS)]; format: functional
# H4 = assay: Luminescence Cell-Based Dose Response HTS to Identify Activators of 5'UTR Stem-Loop Driven Prion Protein mRNA Translation in H4 Neuroglioblastoma Cells. [Related pubchem assays: 1829 (Project Summary), 1814 (Primary HTS)]; format: functional; details: Homo sapiens
# cells [10] = format: functional, cell-based
# cells [11] = format: functional, cell-based; remark: listed apart in the source
# cells [12] = format: functional
# [13] = target: T6, Rac GTPase-activating protein 1 (Homo sapiens, UniProt Q9H0H5); assay: MgcRacGAP GTPase-activating activity inhibitors, confirmation, biochemical, ADP Hunter fluorescence, primary and confirmatory (AID 624330); format: functional
# T6 sequence (Q9H0H5 whole entry): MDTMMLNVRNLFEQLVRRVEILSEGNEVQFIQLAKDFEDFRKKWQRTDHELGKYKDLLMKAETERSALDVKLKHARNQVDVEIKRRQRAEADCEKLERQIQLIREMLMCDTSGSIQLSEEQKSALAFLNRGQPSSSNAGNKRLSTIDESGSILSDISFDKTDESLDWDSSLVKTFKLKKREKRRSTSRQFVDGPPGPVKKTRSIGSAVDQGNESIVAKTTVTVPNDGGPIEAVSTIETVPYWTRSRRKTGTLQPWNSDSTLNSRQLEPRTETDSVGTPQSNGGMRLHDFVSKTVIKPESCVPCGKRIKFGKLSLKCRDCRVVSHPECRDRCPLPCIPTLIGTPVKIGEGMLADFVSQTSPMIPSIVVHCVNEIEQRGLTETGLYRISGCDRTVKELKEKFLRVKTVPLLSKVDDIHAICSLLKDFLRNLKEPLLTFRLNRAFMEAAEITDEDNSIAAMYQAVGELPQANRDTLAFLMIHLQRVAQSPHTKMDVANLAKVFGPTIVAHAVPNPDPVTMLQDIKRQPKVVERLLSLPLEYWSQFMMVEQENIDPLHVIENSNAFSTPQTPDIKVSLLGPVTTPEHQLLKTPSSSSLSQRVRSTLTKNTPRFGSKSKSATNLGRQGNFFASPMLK
SMILES,IC50 (Protein skinhead-1),AC50 [1],EC50 (Protein RecA),also measured
C(=C\c1ccc2ccccc2n1)/c1ccccc1,24.8 µM (active),–,–,–
O=C1c2ccccc2-c2nnc(-c3ccc(O)cc3)cc21,–,15.4 µM (active),1.13 µM (active),–
CN(CCC#N)C(=O)Cn1nc(Cc2ccncc2)c2ccccc2c1=O,–,> 380 µM (inactive),> 380 µM (inactive),–
CCCCOC(=O)Nc1ccc(C(C)C)cc1,42.4 µM (active),–,–,–
O=C(/C=C/c1ccco1)N1CCc2ccccc21,48.6 µM (active),–,–,–
CS(=O)(=O)c1ccc(C(=O)OCC(=O)NC23CC4CC(CC(C4)C2)C3)cc1[N+](=O)[O-],–,1.18 µM (active),1.32 µM (active),AC50 [2]: 2.4 µM (active)
Cc1cccc(CSC(Nc2ccc(F)cc2)=C(C#N)C#N)c1,–,7.03 µM (active),10.9 µM (active),AC50 (INS1): 4.83 µM (active)
Cc1ccc2[nH]c3c(c2c1)CN(C(=O)CN1CCSCC1)CC3,–,> 380 µM (inconclusive),0.132 µM (active),–
Cc1cc(C(=O)CSc2nnc(-c3cccs3)n2Cc2ccccc2)c(C)n1C,> 100 µM (inactive),–,–,–
Cc1cccc(C)c1OCC(O)CN(Cc1ccccc1O)C1CCCCC1 (centres undefined),> 100 µM (inactive),–,–,EC50 [3]: > 120 µM (not active); EC50 [4]: > 120 µM (not active); EC50 [5]: > 120 µM (not active)
Cn1c(SCC(=O)NCC2CCCO2)ncc(C(=O)Nc2ccc(Cl)cc2)c1=O (centres undefined),–,> 380 µM (inactive),1.13 µM (active),–
N#C/C(=C/c1cccn1-c1cccc(C(=O)O)c1)c1ccc(F)cc1,–,14.1 µM (active),> 380 µM (inconclusive),EC50 [6]: > 300 µM (not active); EC50 [7]: > 300 µM (not active)
CCOc1ccc2c(=O)c(Oc3ccccc3OCC)coc2c1,> 100 µM (inactive),–,–,EC50 [8]: 7.35 µM (active); EC50 [9]: 7.99 µM (active); EC50 (H4): 19.3 µM (active)
Cc1cccc(C(=O)O/N=C(\N)c2ccc(Cl)cc2)c1,–,–,–,EC50 (cells [10]): > 350 µM (not active); EC50 (cells [11]): 16.7 µM (active)
C(#Cc1ccc2c(c1)COc1c3ccccc3nn1-2)c1ccccc1,> 100 µM (inactive),–,–,EC50 [6]: > 300 µM (not active); EC50 [7]: 169 µM (active)
Cc1cc(C)c(NC(=O)C[S+]([O-])CC(=O)Nc2ccc(N3CCOCC3)cc2)c(C)c1 (centres undefined),> 100 µM (inactive),–,–,–
CC(=O)Nc1ccc(NC(=O)C2Cc3c(-c4cccc(F)c4)ccnc3O2)cc1 (centres undefined),> 100 µM (inactive),–,–,–
CC1OC(c2ccccc2)OC2COC(c3ccccc3)OC12 (centres undefined),> 100 µM (inactive),–,–,–
O=C(N/N=C/c1ccc(O)cc1)c1cccc(C(F)(F)F)c1,–,–,–,IC50 (cells [12]): 38.6 µM (active); IC50 [13]: 83.9 µM (active)
COC1(OC)C(/C=C/c2ccc(C)cc2)C(C#N)(C#N)C1(OC)OC (centres undefined),–,> 380 µM (inactive),> 380 µM (inactive),–
CCO/C(O)=C1\C(C)=NC(SCc2cc(O)[nH]n2)=C(C#N)C1c1cccs1 (centres undefined),–,6.16 µM (active),4.99 µM (active),–
